Experimental data published in ChEMBL document CHEMBL5604063, “ASAP - DENV-2 NS2B-NS3 protease fluorescence dose response” (2024).
Values joined by “and” are separate entries in the source; they are usually repeats but may differ in a detail not shown here. Identical values can stand only once.

Experiments:
Genome polyprotein [1] = target: T1, Genome polyprotein (dengue virus type 2, UniProt P29990); format: functional, Thailand/16681/1984
Genome polyprotein [2] = target: T1, Genome polyprotein; format: functional, Thailand/16681/1984; remark: listed apart in the source

T1 sequence (P29990 1346-1475 limits assumed): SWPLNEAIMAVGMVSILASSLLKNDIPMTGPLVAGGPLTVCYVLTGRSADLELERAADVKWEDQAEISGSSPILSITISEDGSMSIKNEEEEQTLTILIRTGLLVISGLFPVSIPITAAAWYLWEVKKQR
T1 sequence (P29990 1476-2093 limits assumed): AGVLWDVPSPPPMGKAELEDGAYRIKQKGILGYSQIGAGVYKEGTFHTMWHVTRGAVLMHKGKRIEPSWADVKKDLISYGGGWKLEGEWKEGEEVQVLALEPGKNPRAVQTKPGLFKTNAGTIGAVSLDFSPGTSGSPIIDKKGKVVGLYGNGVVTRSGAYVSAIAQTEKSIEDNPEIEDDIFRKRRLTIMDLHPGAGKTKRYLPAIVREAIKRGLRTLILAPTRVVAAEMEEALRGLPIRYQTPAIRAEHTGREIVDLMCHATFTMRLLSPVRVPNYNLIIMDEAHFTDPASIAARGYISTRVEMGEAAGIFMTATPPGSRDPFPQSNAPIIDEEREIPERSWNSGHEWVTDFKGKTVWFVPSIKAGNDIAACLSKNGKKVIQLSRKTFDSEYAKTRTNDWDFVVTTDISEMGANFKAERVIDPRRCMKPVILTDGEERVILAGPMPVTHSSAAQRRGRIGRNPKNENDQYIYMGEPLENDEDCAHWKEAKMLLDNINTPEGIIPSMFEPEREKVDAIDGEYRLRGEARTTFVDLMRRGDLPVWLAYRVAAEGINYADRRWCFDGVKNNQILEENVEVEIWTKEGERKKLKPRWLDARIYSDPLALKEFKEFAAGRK

SMILES | IC50 (Genome polyprotein [1]) | IC50 (Genome polyprotein [2]) [µM]
NCc1cccc(NC(=O)c2cc(C3CC3)nc3ccc(Cl)cc23)c1 | > 99.5 µM | > 100
O=C(Nc1cc(Cl)cc(C(=O)Nc2ccnc([C@H]3CCCN3)n2)c1)OCc1ccccc1 | > 99.5 µM | > 100
NCc1cccc([C@H]2C[C@@H]2c2cc(Cl)cc(NC(=O)OCc3ccccc3)c2)c1 | 41 µM and 25.9 µM and 30 µM | > 100
Cn1cncc1COc1cccc([C@H](NC(=O)OCc2ccccc2)C(=O)Nc2cccc(CN)c2)c1 | 66 µM | > 100
CS(=O)(=O)N(c1cc(Cl)cc(C(=O)Nc2cccc(CN)c2)c1)S(C)(=O)=O | > 99.5 µM | > 100
Cc1cc(CN)cc(C)c1NS(=O)(=O)c1ccc(Oc2ccccc2Cl)cc1 | > 99.5 µM | > 100
NC1(c2cccc(NS(=O)(=O)c3ccc(Oc4ccccc4Cl)cc3)c2)CCOCC1 | > 99.5 µM | > 100
CCc1c(C(=O)Nc2cccc(CN)c2)c2cc(Cl)ccc2n1C | > 99.5 µM | > 100
O=c1ccc(N2CCN(Cc3c[nH]c4ccccc34)CC2)c[nH]1 | > 99.5 µM | > 100
COc1cn(-c2cccc(C(F)(F)F)c2)nc1C(=O)Nc1cccc(CN)c1 | > 99.5 µM | > 100
NCc1cccc(NC(=O)c2cc(C3CCCCC3)nc3ccc(F)cc23)c1 | > 99.5 µM | > 100
NCc1cccc(NC(=O)c2cccc(Oc3ccc(Cl)c(Cl)c3)n2)c1 | 95.6 µM | > 100
CCOc1cccc(-c2ccc(S(=O)(=O)Nc3ccc(Cl)cc3C(=O)O)cc2C)c1 | 7.15 µM | 7.34
NC1CN(c2ccc(NS(=O)(=O)c3ccc(Oc4ccccc4Cl)cc3)cn2)C1 | > 99.5 µM | > 100
NCc1cccc(NC(=O)[C@H](NC(=O)OCc2ccccc2)c2cccc(-c3ccnc(N)c3)c2)c1 | > 99.5 µM | > 100
Cc1cc(C(=O)Nc2cccc(CN)c2)n2nc(C(F)(F)F)cc2n1 | 86.7 µM | > 100
CC(C)(C)OC(=O)NCc1cccc(NC(=O)C[C@H](N)c2ccc(OCc3ccccc3)c(Br)c2)c1 | > 99.5 µM | > 100
N[C@H]1CCCc2ccc(NC(=O)c3cc(Cl)cc(NC(=O)OCc4ccccc4)c3)cc21 | > 99.5 µM | > 100
NC1(c2cccc(NC(=O)c3cc(Cl)cc(NC(=O)OCc4ccccc4)c3)c2)CCOCC1 | > 99.5 µM | > 100
Cc1ccc(OCc2ccccc2Cl)c(C(=O)Nc2cccc(CN)c2)c1 | 99.5 µM | > 100
CS(=O)(=O)Nc1cc(Cl)cc(C(=O)Nc2cccc(CN)c2)c1 | > 99.5 µM | > 100

SMILES | IC50 (Genome polyprotein [1]) | IC50 (Genome polyprotein [2]) [µM]
CCc1cc(NC(=O)OCc2ccccc2)cc(C(=O)Nc2cccc(CN)c2)c1 | > 99.5 µM | > 100
NCc1cccc(NC(=O)c2cc(CO)cc(NC(=O)OCc3ccccc3)c2)c1 | > 99.5 µM | > 100
NCc1cc(Cl)cc(C(=O)Nc2cccc(C3CCNCC3)c2)c1 | > 99.5 µM | > 100
COc1ccc(-c2cccc([C@H](NC(=O)OCc3ccccc3)C(=O)Nc3cccc(CN)c3)c2)c(C#N)c1 | 56.5 µM | > 100
NCc1cccc(NC(=O)[C@H](NC(=O)OCc2ccccc2)c2cccc(-c3ccccn3)c2)c1 | > 99.5 µM | > 100
NCc1cccc(NC(=O)[C@H]2CCc3nnc(-c4ccc(F)cc4)n3C2)c1 | > 99.5 µM | > 100
Cc1ccc(NS(=O)(=O)c2ccc(Oc3ccccc3Cl)cc2)cc1CN | > 99.5 µM | > 100
CC(C)(CNCc1c[nH]c2ccccc12)c1cccnc1 | > 99.5 µM | > 100
NCc1cccc(NC(=O)c2cc(Cl)cc(NC(=O)NCc3ccccc3)c2)c1 | > 99.5 µM | > 100
CCCN(C)C(=O)Cn1ccnc(N2CC[C@H](CO)C2)c1=O | > 99.5 µM | > 100
NCc1ccc(NC(=O)[C@H]2[C@H]3CCCCC[C@H]3[C@H]2NC(=O)OCc2ccccc2)cc1 | 57.4 µM | > 100
O=C(Nc1cc(Cl)cc(C(=O)Nc2nc([C@H]3CCCN3)cc(=O)[nH]2)c1)OCc1ccccc1 | 86.9 µM | > 100
CCc1onc(-c2ccc(Br)cc2)c1C(=O)Nc1cccc(CN)c1 | > 99.5 µM | > 100
CC(C)(C)Cn1c(=O)[nH]c2cccc(C(=O)Nc3cccc(CN)c3)c21 | > 99.5 µM | > 100
CC(C)(C)NS(=O)(=O)c1cccc(C(=O)Nc2cccc(CN)c2)c1 | > 99.5 µM | > 100
O=C(Nc1cc(Cl)cc(C(=O)Nc2cccc([C@H]3CCCN3)c2)c1)OCc1ccccc1 | 95.3 µM | > 100
NCc1cccc(NC(=O)[C@@H]2C[C@@H](O)CN2C(=O)C23CC4CC(CC(C4)C2)C3)c1 | > 99.5 µM | > 100
NCc1cccc(NC(=O)c2cc3c(F)cc(F)c(F)c3[nH]2)c1 | > 99.5 µM | > 100
NCc1cccc(NC(=O)[C@H](NC(=O)OCc2ccccc2)c2cccc(-c3ccc4c(c3)CC(=O)N4)c2)c1 | 16.2 µM and 7.19 µM | > 100
NCc1ccc(NS(=O)(=O)c2ccc(Oc3ccccc3Cl)cc2)cc1Cl | > 99.5 µM | > 100
CC(C)(C#N)c1cc(C(=O)Nc2cccc(CN)c2)cc(C(F)(F)F)c1 | > 99.5 µM | > 100

SMILES | IC50 (Genome polyprotein [1]) | IC50 (Genome polyprotein [2]) [µM]
N[C@H](CO)c1cccc(NC(=O)c2cc(Cl)cc(NC(=O)OCc3ccccc3)c2)c1 | > 99.5 µM | > 100
Cc1c(F)cc(C(=O)Nc2cccc(CN)c2)c(F)c1NC(=O)OCc1ccccc1 | 69.8 µM | 100
NCc1cccc(NC(=O)c2ccc(=O)n(Cc3ccccc3Cl)c2)c1 | > 99.5 µM | > 100
NC1CN(c2ncccc2NS(=O)(=O)c2ccc(Oc3ccccc3Cl)cc2)C1 | > 99.5 µM | > 100
NC1(c2cccc(NC(=O)c3cc(Cl)cc(NC(=O)OCc4ccccc4)c3)c2)CC1 | > 99.5 µM | > 100
NCc1cccc(Oc2ccc(S(=O)(=O)Nc3ccc(Cl)cc3C(=O)NCC(F)(F)F)cc2)c1 | > 99.5 µM | > 100
NC(=O)c1cccc(NC(=O)c2cc(Cl)cc(NC(=O)OCc3ccccc3)c2)c1 | > 99.5 µM | > 100
C#Cc1cc(CN)ccc1NS(=O)(=O)c1ccc(Oc2ccccc2Cl)cc1 | > 99.5 µM | > 100
CCc1cc(C(=O)Nc2cccc(CN)c2)sc1-c1ccc(Cl)cc1 | 19.7 µM and 24.8 µM | > 100
C=C(C)c1cc(NC(=O)OCc2ccccc2)cc(C(=O)Nc2cccc(CN)c2)c1 | 50.4 µM | > 100
O=C(Cn1ccnc(N2CC[C@H](CO)C2)c1=O)NCc1cc[nH]n1 | > 99.5 µM | > 100
O=C(Cn1ccnc(N2CC[C@H](CO)C2)c1=O)N1CCOCC1 | > 99.5 µM | > 100
NC1(c2cc(C(F)(F)F)ccc2NS(=O)(=O)c2ccc(Oc3ccccc3Cl)cc2)CC1 | > 99.5 µM | > 100
NCc1cccc(NC(=O)[C@H](NC(=O)OCc2ccccc2)c2ccc(OCc3ccccc3)c(Br)c2)c1 | 30.4 µM | > 100
NCc1cccc(NC(=O)c2nn(-c3ccccc3F)cc2Br)c1 | > 99.5 µM | > 100
O=C(Nc1cc(Cl)cc(C(=O)Nc2cccc([C@H]3CNCCO3)c2)c1)OCc1ccccc1 | > 99.5 µM | > 100
NCCc1cccc(NC(=O)[C@H]2[C@H]3CCCCC[C@H]3[C@H]2NC(=O)OCc2ccccc2)c1 | 8.41 µM and 7.22 µM | 12.1
NCc1cccc(CCc2cc(Cl)cc(NC(=O)OCc3ccccc3)c2)c1 | 34.8 µM | > 100
NCc1cccc(NC(=O)c2cc(C(F)(F)F)nn2CC2CCC2)c1 | > 99.5 µM | > 100
NCCOc1ccnc(NS(=O)(=O)c2ccc(Oc3ccccc3Cl)cc2)c1 | > 99.5 µM | > 100
C[C@@H](NCc1c[nH]c2ccccc12)c1cscn1 | > 99.5 µM | > 100

SMILES | IC50 (Genome polyprotein [1]) | IC50 (Genome polyprotein [2]) [µM]
NCc1cccc(NC(=O)C[C@H](CC(N)=O)c2ccc(F)cc2)c1 | > 99.5 µM | > 100
N[C@H]1CCc2ccc(NC(=O)c3cc(Cl)cc(NC(=O)OCc4ccccc4)c3)cc21 | 91.2 µM | > 100
CS(=O)(=O)Nc1c(Cl)cc(Cl)cc1C(=O)Nc1cccc(CN)c1 | > 99.5 µM | > 100
Cc1cc(CN)cc(NS(=O)(=O)c2ccc(Oc3ccccc3Cl)cc2)c1 | > 99.5 µM | > 100
NCc1cccc(NC(=O)c2ccnc3[nH]c(C4CCOCC4)nc23)c1 | > 99.5 µM | > 100
NCc1cccc(NC(=O)c2cc(Br)cnc2OCC2CC2)c1 | > 99.5 µM | > 100
COc1ccc(COc2ccc([C@H](NC(=O)OCc3ccccc3)C(=O)Nc3cccc(CN)c3)cc2)cn1 | > 99.5 µM | > 100
NC1(c2ccccc2NS(=O)(=O)c2ccc(Oc3ccccc3Cl)cc2)CC1 | > 99.5 µM | > 100
NCc1cccc(NC(=O)[C@H](NC(=O)OCc2ccccc2)c2ccc(OCC3CCC3)cc2)c1 | 48.8 µM | > 100
c1ccc2c(CNC3CCN(Cc4cscn4)CC3)c[nH]c2c1 | > 99.5 µM | > 100
CCCCCn1cc(C(=O)Nc2cccc(CN)c2)c2ccccc21 | > 99.5 µM | > 100
OC[C@H](Cc1cccnc1)NCc1c[nH]c2ccccc12 | > 99.5 µM | > 100
CC(C)c1nc2c(C(=O)Nc3cccc(CN)c3)cccc2[nH]1 | > 99.5 µM | > 100
Cc1ccc(-n2nc(C(=O)Nc3cccc(CN)c3)ccc2=O)cc1Cl | > 99.5 µM | > 100
COc1cc(C(=O)Nc2cccc(CN)c2)cc(NC(=O)OCc2ccccc2)c1Cl | > 99.5 µM | > 100
NC1(c2cccc(NS(=O)(=O)c3ccc(Oc4ccccc4Cl)cc3)c2)CCC1 | > 99.5 µM | > 100
NCc1cccnc1NS(=O)(=O)c1ccc(Oc2ccccc2Cl)cc1 | > 99.5 µM | > 100
N[C@H]1CCOc2ccc(NC(=O)c3cc(Cl)cc(NC(=O)OCc4ccccc4)c3)cc21 | > 99.5 µM | > 100
O=C(O)C[C@H](NC(=O)OCc1ccccc1)c1ccc(OCc2ccccc2)c(Br)c1 | 59.8 µM | 45.6
